pIC50: −log10 of the molar value.

In general, pIC50 refers to the negative decadic logarithm of the IC50, by convention in mol/L.

Chain of TRPA1 (O75762 whole entry): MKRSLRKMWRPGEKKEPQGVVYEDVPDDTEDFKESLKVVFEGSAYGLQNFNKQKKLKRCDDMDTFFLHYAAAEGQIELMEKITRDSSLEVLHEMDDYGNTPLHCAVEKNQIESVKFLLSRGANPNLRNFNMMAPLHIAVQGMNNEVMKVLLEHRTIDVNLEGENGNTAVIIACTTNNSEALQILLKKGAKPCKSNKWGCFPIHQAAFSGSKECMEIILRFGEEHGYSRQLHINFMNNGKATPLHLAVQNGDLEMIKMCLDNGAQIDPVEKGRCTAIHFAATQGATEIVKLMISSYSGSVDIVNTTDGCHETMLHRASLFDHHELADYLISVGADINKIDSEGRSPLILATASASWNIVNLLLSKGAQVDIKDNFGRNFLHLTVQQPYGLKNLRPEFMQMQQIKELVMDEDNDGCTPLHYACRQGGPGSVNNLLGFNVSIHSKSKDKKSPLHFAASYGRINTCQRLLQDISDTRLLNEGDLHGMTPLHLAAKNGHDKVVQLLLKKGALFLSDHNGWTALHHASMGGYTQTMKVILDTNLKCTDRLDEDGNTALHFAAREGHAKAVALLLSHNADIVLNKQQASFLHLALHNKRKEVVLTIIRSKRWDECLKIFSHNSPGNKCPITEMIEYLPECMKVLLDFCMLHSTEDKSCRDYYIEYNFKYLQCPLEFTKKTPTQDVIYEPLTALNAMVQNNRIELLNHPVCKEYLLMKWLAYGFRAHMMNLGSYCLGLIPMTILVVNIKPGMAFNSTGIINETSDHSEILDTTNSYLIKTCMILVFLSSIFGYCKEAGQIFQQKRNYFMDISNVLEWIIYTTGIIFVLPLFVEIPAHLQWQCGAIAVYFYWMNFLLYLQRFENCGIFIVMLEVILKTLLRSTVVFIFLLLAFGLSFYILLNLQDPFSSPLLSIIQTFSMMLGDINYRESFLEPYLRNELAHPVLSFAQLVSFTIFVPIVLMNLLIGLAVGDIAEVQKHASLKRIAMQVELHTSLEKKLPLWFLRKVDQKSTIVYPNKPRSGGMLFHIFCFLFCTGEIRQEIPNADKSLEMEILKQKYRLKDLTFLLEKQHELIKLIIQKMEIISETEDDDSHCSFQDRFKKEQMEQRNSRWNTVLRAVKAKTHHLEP

The test has as its target TRPA1 (Homo sapiens, UniProt O75762). As to the kind of experiment: Determination of TRPA1 activity in vitro (TRPA1 antagonism in vitro), procedure of Wei et al., Anesthesiology 111 (2009) 147-154. Type of test: cell-based. An excerpt:
EXPERIMENT 1: Determination of TRPA1 activity in vitro
The illustrative examples of the present invention were screened for TRPA1 activity according to a procedure described in Wei et al., Anesthesiology 111 (2009) 147-154. Table 1. TRPA1 antagonism in vitro.
In the case of `CSCCOc1cccc(CNC(=O)[C@@H]2CCCN2S(=O)(=O)c2ccc(F)cc2)c1` [Example 1, (S)-1-(4-Fluorophenylsulfonyl)-N-(3-(2-(methylthio)ethoxy)benzyl) pyrrolidine-2-carboxamide], the pIC50 is 5.40. `O=C(NCc1cccc(Br)c1)[C@@H]1CCCN1S(=O)(=O)c1ccccc1` [Example 2, (S)-N-(3-bromobenzyl)-1-(phenylsulfonyl)pyrrolidine-2-carboxamide]: the pIC50 is 4.73. Molecule `CCCC(=O)c1cccc(CNC(=O)[C@@H]2CCCN2S(=O)(=O)c2ccc(F)cc2)c1` [Example 3, (S)-N-(3-butyrylbenzyl)-1-(4-fluorophenylsulfonyl)pyrrolidine-2-carboxamide] gave a pIC50 of 4.98. The same measure for `CC(C)(C)COc1cc(CNC(=O)[C@@H]2C[C@@H](F)CN2S(=O)(=O)c2ccc(F)cc2)ccn1` [Example 4, (2S,4R)-4-Fluoro-1-(4-fluorophenylsulfonyl)-N-((2-(neopentyloxy)pyridin-4-yl)methyl)pyrrolidine-2-carboxamide]: 4.95.

For the molecule `CCc1cc(CNC(=O)[C@@H]2CCCN2S(=O)(=O)c2ccc(F)cc2)ccc1C#N` [Example 5, (S)-N-(4-cyano-3-ethylbenzyl)-1-(4-fluorophenylsulfonyl)pyrrolidine-2-carboxamide], the pIC50 was 5.01. This pIC50 and that of the molecule before are within 0.2 log units of each other. The molecule `CCCOc1cccc(CNC(=O)[C@@H]2CCCN2S(=O)(=O)c2ccccc2)c1` [Example 6, (S)-1-(Phenylsulfonyl)-N-(3-propoxybenzyl)pyrrolidine-2-carboxamide] had a pIC50 of 5.29. Molecule `O=C(NCc1cc(OCC(F)(F)F)ccn1)[C@@H]1CCCN1S(=O)(=O)c1ccc(F)cc1` [Example 7, (S)-1-(4-Fluorophenylsulfonyl)-N-((4-(2,2,2-trifluoroethoxy)pyridin-2-yl)methyl)pyrrolidine-2-carboxamide] had a pIC50 of 4.76.

`O=C(NCc1ccc(C(F)(F)F)cc1)[C@@H]1C[C@@H](F)CN1S(=O)(=O)c1ccc(F)cc1` [Example 8, (2S,4R)-4-Fluoro-1-(4-fluorophenylsulfonyl)-N-(4-(trifluoromethyl)benzyl)pyrrolidine-2-carboxamide] had a pIC50 of 4.84. For `O=C(NCc1ccc(Br)cc1F)[C@@H]1CCCN1S(=O)(=O)c1ccc(F)cc1` [Example 9, (S)-N-(4-bromo-2-fluorobenzyl)-1-(4-fluorophenylsulfonyl)pyrrolidine-2-carboxamide], the pIC50 was 5.28. The same measure for `O=C(NCc1ccnc(OCCC(F)(F)F)c1)[C@@H]1CCCN1S(=O)(=O)c1cc(F)cc(F)c1` [Example 10, (S)-1-(3,5-Difluorophenylsulfonyl)-N-((2-(3,3,3-trifluoropropoxy)pyridin-4-yl)methyl)pyrrolidine-2-carboxamide]: 4.77; for `CCCc1cc(CNC(=O)[C@@H]2CCCN2S(=O)(=O)c2ccccc2)ccc1C#N` [Example 11, (S)-N-(4-cyano-3-propylbenzyl)-1-(phenylsulfonyl)pyrrolidine-2-carboxamide]: 5.36.

In turn, `O=C(NCc1ccc(Br)cc1F)[C@@H]1C[C@@H](F)CN1S(=O)(=O)c1ccc(F)cc1` [Example 12, (2S,4R)-N-(4-bromo-2-fluorobenzyl)-4-fluoro-1-(4-fluorophenyl-sulfonyl)pyrrolidine-2-carboxamide] had a pIC50 of 4.79. The same measure for `O=C(NCc1cc(F)cc(OC(F)F)c1)[C@@H]1CCCN1S(=O)(=O)c1ccc(F)cc1` [Example 13, (S)-N-(3-(difluoromethoxy)-5-fluorobenzyl)-1-(4-fluorophenylsulfonyl) pyrrolidine-2-carboxamide]: 4.94; for `O=C(NCc1ccnc(OCCC(F)(F)F)c1)[C@@H]1C[C@@H](F)CN1S(=O)(=O)c1ccc(F)c(F)c1` [Example 14, (2S,4R)-1-(3,4-Difluorophenylsulfonyl)-4-fluoro-N-((2-(3,3,3-trifluoropropoxy)pyridin-4-yl)methyl)pyrrolidine-2-carboxamide]: 4.59. The same measure for `CCOc1cc(F)cc(CNC(=O)[C@@H]2CCCN2S(=O)(=O)c2ccc(F)cc2)c1` [Example 15, (S)-N-(3-ethoxy-5-fluorobenzyl)-1-(4-fluorophenylsulfonyl)pyrrolidine-2-carboxamide]: 5.23; for `COc1cc(Cl)cc(CNC(=O)[C@@H]2CCCN2S(=O)(=O)c2ccc(F)cc2)c1` [Example 16, (S)-N-(3-chloro-5-methoxybenzyl)-1-(4-fluorophenylsulfonyl) pyrrolidine-2-carboxamide]: 5.27.

Consider `O=C(NCc1ccc(C(F)(F)F)cc1)[C@@H]1CCCN1S(=O)(=O)c1ccccc1` [Example 17, (S)-1-(Phenylsulfonyl)-N-(4-(trifluoromethyl)benzyl)pyrrolidine-2-carboxamide], for which the pIC50 is 4.89.

With `O=C(NCc1cc(F)cc(OC(F)F)c1)[C@@H]1C[C@@H](F)CN1S(=O)(=O)c1ccc(F)cc1` [Example 18, (2S,4R)-N-(3-(difluoromethoxy)-5-fluorobenzyl)-4-fluoro-1-(4-fluorophenylsulfonyl)pyrrolidine-2-carboxamide], the pIC50 was 4.62. The same measure for `CC(C)CSc1cc(CNC(=O)[C@@H]2CCCN2S(=O)(=O)c2ccc(F)cc2)ccn1` [Example 19, (S)-1-(4-Fluorophenylsulfonyl)-N-((2-(isobutylthio)pyridin-4-yl)methyl)pyrrolidine-2-carboxamide]: 5.03. The same measure for `O=C(NCc1ccc(Cl)cc1)[C@@H]1CCCN1S(=O)(=O)c1ccc(F)cc1` [Example 20, (S)-N-(4-chlorobenzyl)-1-(4-fluorophenylsulfonyl)pyrrolidine-2-carboxamide]: 4.90; for `CC(C)Nc1cc(CNC(=O)[C@@H]2C[C@@H](F)CN2S(=O)(=O)c2ccccc2)ccc1Cl` [Example 21, (2S,4R)-N-(4-chloro-3-(isopropylamino)benzyl)-4-fluoro-1-(phenylsulfonyl)pyrrolidine-2-carboxamide]: 4.81; for `O=C(NCc1cccc(C2CC2)c1)[C@@H]1CCCN1S(=O)(=O)c1ccccc1` [Example 22, (S)-N-(3-cyclopropylbenzyl)-1-(phenylsulfonyl)pyrrolidine-2-carboxamide]: 4.87. The figure for `O=C(NCc1cccc(C2CC2)c1)[C@@H]1CCCN1S(=O)(=O)c1ccc(F)cc1` [Example 23, (S)-N-(3-cyclopropylbenzyl)-1-(4-fluorophenylsulfonyl)pyrrolidine-2-carboxamide] is 5.11; for `O=C(NCc1cccc(C(F)(F)F)c1)[C@@H]1CCCN1S(=O)(=O)c1ccccc1` [Example 24, (S)-1-(Phenylsulfonyl)-N-(3-(trifluoromethyl)benzyl)pyrrolidine-2-carboxamide] it is 4.77. For `O=C(NCc1cccc(S(F)(F)(F)(F)F)c1)[C@@H]1CCCN1S(=O)(=O)c1ccccc1` [Example 25], the pIC50 was 5.17. The figure for `O=C(NCc1ccnc(OCCC(F)(F)F)c1)[C@@H]1C[C@@H](F)CN1S(=O)(=O)c1ccc(F)cc1` [Example 26, (2S,4R)-4-Fluoro-1-(4-fluorophenylsulfonyl)-N-((2-(3,3,3-trifluoropropoxy)pyridin-4-yl)methyl)pyrrolidine-2-carboxamide] is 4.43.

These data come from patent publication EP2520566A1, “New Pharmaceutical Compounds” (Orion Corporation, priority 2011, dated 2012).
